Results as given in patent EP1862549A2, “Target of RNAIII activating protein (TRAP)” (Balaban, Naomi, priority 1998, dated 2007).

Columns and labels:
[1] = test system: S. aureus; settings: animals treated with RIP; cited from earlier work
[2] = test system: TRAP; settings: wild type early exponential S. aureus cells incubated in PFB with 32P; PBS as control
Procedure: Wild type early exponential S. aureus cells were incubated for 1 hr in phosphate free buffer (PFB) together with ^32P, with RAP (in PBS) or with PBS only as a control. […] Cells were collected, applied to SDS PAGE, and the gel autoradiographed. The autoradiogram was scanned and the density of the bands determined.
Wild type early exponential S. aureus cells were incubated in PFB with ^32P with either PBS alone, RIP, RAP, or a combination of RIP and RAP. […] The cells were collected, applied to SDS PAGE, the gel autoradiographed, and the relative amounts of TRAP phosphorylation and RNAIII transcription levels determined (Balaban et al. Proc. Natl. Acad. Sci. U.S.A. 92:1619-1623 (1995)). […] The relative levels of TRAP phosphorylation (Fig. 14) and RNAIII transcription (Fig. 15) in the presence of PBS alone (control), RIP, RAP, or RIP and RAP were also determined.

## YSPXTNF (SEQ ID NO:3) [RIP]
[1]
  protection from an S. aureus infection: protected
[2]
  TRAP phosphorylation: inhibited
